Measurements reported in the NIST ThermoML archive (doi:10.1016/j.jct.2013.12.002).

Test: osmotic coefficient (dimensionless); mn = molality of the nth substance listed, in mol/kg
Conditions: 323.15 K, 101 kPa, Liquid, Knauer K-7000 vapour pressure osmometer

CCCC[N+]1(C)CCCC1.N#CN=C=[N-] [1-butyl-1-methylpyrrolidinium dicyanamide] + CC(C)O
Conditions	osmotic coefficient
m1 = 0.0709	0.942
m1 = 0.1087	0.878
m1 = 0.1972	0.827
m1 = 0.2934	0.778
m1 = 0.3976	0.75
m1 = 0.4909	0.722
m1 = 0.7769	0.685
m1 = 1.175	0.645
m1 = 1.595	0.631
m1 = 1.998	0.612
m1 = 2.419	0.608
m1 = 2.821	0.595
m1 = 3.296	0.59

CCCC[N+]1(C)CCCC1.N#CN=C=[N-] [1-butyl-1-methylpyrrolidinium dicyanamide] + CCCCO
Conditions	osmotic coefficient
m1 = 0.0577	0.734
m1 = 0.0761	0.68
m1 = 0.1089	0.665
m1 = 0.2006	0.624
m1 = 0.296	0.602
m1 = 0.4011	0.587
m1 = 0.4745	0.581
m1 = 0.8117	0.57
m1 = 1.214	0.551
m1 = 1.617	0.541
m1 = 2.033	0.532
m1 = 2.43	0.52
m1 = 2.845	0.516
m1 = 3.308	0.508

CCCC[N+]1(C)CCCC1.N#CN=C=[N-] [1-butyl-1-methylpyrrolidinium dicyanamide] + CCC(C)O
Conditions	osmotic coefficient
m1 = 0.0878	0.793
m1 = 0.1149	0.755
m1 = 0.1863	0.705
m1 = 0.2981	0.641
m1 = 0.4092	0.621
m1 = 0.5397	0.591
m1 = 0.8291	0.58
m1 = 1.213	0.555
m1 = 1.611	0.556
m1 = 2.019	0.548
m1 = 2.4	0.539
m1 = 2.776	0.533
m1 = 3.307	0.523

CCCC[N+]1(C)CCCC1.N#CN=C=[N-] [1-butyl-1-methylpyrrolidinium dicyanamide] + CCCO
Conditions	osmotic coefficient
m1 = 0.0836	0.9
m1 = 0.119	0.858
m1 = 0.2054	0.8
m1 = 0.2962	0.743
m1 = 0.4029	0.71
m1 = 0.502	0.689
m1 = 0.7791	0.653
m1 = 1.182	0.614
m1 = 1.61	0.587
m1 = 2	0.576
m1 = 2.442	0.565
m1 = 2.865	0.56

CCCC[N+]1(C)CCCC1.N#CN=C=[N-] [1-butyl-1-methylpyrrolidinium dicyanamide] + CCCCCO
Conditions	osmotic coefficient
m1 = 0.0446	0.63
m1 = 0.0818	0.59
m1 = 0.1078	0.558
m1 = 0.1865	0.512
m1 = 0.299	0.491
m1 = 0.3928	0.477
m1 = 0.5108	0.467
m1 = 0.8086	0.453
m1 = 1.191	0.444
m1 = 1.598	0.435
m1 = 2.004	0.425
m1 = 2.406	0.417
m1 = 2.798	0.409
m1 = 3.063	0.404
